Assay results: patent publication US20260325533A1, “CDK INHIBITOR COMPOUNDS” (ALEKSIA THERAPEUTICS, INC., priority 2023, published 2026)
Read-outs that look alike come from different tables or passages of the source.

Columns and labels:
Format in all cases: biochemical
[1] = target: CDK2/CCNE1 (Homo sapiens, UniProt P24941); test: CDK2 homogeneous time-resolved fluorescence (HTRF) kinase assay; conditions: CDK2/CCNE
In short: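 3 nM CDK2/CCNE1 was preincubated with compound for 20 min at 23 °C in HEPES buffer (pH not stated), then reacted 60 min with 1 mM ATP and 50 nM ULight-4E-BP1 (Thr37/46) peptide. After EDTA stop, Eu-anti-phospho-4E-BP1 antibody (2 nM) was added for 60 min and TR-FRET read at 665 nm.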

[2] = target: CDK1/CCNB1 (Homo sapiens, UniProt P06493); test: CDK1 homogeneous time-resolved fluorescence (HTRF) kinase assay; conditions: CDK1/CCNB
CDK1/CCNB1, sequence (P06493 whole entry): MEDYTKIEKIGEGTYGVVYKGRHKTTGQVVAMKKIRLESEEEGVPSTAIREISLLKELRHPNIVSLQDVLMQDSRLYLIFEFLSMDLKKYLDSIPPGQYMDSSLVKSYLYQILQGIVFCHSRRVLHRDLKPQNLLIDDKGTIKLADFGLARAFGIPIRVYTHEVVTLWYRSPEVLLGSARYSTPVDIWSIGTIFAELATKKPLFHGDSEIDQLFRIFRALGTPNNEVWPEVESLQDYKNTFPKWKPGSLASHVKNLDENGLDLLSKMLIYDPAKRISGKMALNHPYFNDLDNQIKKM
CDK1/CCNB1, sequence (P14635 whole entry partner): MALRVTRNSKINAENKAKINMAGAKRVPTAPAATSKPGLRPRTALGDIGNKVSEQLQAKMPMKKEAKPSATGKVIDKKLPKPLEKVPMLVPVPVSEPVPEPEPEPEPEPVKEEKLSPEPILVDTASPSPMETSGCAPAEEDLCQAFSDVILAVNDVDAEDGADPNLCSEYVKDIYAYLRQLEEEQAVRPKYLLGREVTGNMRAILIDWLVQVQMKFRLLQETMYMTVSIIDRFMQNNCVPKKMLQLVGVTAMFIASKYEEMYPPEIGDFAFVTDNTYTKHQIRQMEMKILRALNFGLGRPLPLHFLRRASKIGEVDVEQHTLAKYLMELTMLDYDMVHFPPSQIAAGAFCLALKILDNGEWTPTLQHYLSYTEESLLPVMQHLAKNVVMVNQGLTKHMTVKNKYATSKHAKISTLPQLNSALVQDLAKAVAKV
In short: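 Read-out: TR-FRET (Eu anti-phospho-4E-BP1 Thr37/46 antibody, 2 nM; 665 nm or 665/615 ratio) after 60 min phosphorylation of 50 nM ULight-peptide by 0.5 nM CDK1/CCNB1 at 1 mM ATP, 23 °C. Compound preincubated 20 min with enzyme; 1% DMSO.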

[3] = target: CDK6/CCND1 (Homo sapiens, UniProt Q00534); test: CDK6 homogeneous time-resolved fluorescence (HTRF) kinase assay; conditions: CDK6/CCND
CDK6/CCND1, sequence (Q00534 whole entry): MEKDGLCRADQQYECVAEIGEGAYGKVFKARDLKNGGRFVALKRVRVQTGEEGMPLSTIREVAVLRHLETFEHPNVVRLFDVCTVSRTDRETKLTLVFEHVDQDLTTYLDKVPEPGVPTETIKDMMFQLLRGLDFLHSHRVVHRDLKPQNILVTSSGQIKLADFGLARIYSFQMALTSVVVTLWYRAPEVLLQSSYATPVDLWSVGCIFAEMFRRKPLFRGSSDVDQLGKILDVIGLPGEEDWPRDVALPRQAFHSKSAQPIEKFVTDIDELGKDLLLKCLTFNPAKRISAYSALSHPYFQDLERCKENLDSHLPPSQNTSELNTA
CDK6/CCND1, sequence (P24385 whole entry partner): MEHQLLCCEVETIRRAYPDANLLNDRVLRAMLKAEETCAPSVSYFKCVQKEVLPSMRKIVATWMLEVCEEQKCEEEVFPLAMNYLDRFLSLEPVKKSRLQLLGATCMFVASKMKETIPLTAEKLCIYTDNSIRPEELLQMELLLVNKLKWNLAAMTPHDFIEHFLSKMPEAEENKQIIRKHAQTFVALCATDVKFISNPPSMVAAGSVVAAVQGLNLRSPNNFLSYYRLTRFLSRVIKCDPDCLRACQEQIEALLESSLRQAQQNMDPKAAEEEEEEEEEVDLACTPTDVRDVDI
In short: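 1 nM enzyme, 1 mM ATP, 50 nM ULight-4E-BP1 (Thr37/46) peptide, 1% DMSO; 20 min compound preincubation, 60 min reaction, 23 °C. EDTA stop, 2 nM Eu-anti-phospho-4E-BP1 antibody 60 min. TR-FRET 665 nm (or 665/615 ratio); IC50 from 11-point half-log titration, top 10 μM.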

[4] = target: CDK4/CCND3 (Homo sapiens, UniProt P11802); test: CDK4 homogeneous time-resolved fluorescence (HTRF) kinase assay; conditions: CDK4/CCND
CDK4/CCND3, sequence (P11802 whole entry): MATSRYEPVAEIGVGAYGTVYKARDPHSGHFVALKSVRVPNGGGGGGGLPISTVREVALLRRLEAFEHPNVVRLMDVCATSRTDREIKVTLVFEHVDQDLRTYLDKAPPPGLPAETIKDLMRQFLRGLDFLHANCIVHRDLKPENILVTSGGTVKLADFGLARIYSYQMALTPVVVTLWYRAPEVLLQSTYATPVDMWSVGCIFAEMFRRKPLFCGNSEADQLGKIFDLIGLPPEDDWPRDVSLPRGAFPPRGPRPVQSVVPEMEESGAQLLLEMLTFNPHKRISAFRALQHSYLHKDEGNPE
CDK4/CCND3, sequence (P30281 whole entry partner): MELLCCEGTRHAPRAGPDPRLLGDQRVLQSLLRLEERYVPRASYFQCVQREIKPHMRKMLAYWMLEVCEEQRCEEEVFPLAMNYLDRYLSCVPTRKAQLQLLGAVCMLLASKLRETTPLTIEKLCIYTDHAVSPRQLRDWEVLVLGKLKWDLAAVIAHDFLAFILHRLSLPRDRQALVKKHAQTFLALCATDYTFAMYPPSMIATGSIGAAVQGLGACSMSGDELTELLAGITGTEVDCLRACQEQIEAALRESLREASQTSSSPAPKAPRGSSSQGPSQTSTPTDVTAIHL
In short: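 Compounds were preincubated with 1.5 nM CDK4/CCND3 for 20 min at 23 °C in HEPES buffer (pH not given), then reacted 60 min with 1 mM ATP and 50 nM ULight-4E-BP1 (Thr37/46) peptide. EDTA stop, Eu-anti-phospho-4E-BP1 detection; 665/615 nm ratio; IC50 from 11-point half-log titrations from 10 μM.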

[5] = x = IC50 >250 nM, read-out: CDK1/CCNB IC50 (>250 nM column)
[6] = x = IC50 >250 nM, read-out: CDK6/CCND IC50 (>250 nM column)
[7] = x = IC50 >250 nM, read-out: CDK4/CCND IC50 (>250 nM column)
[8] = x = IC50 <25 nM, read-out: CDK2/CCNE IC50 (<25 nM)
[9] = x = IC50 25-250 nM, read-out: CDK6/CCND IC50 (25-250 nM)
[10] = x = IC50 25-250 nM, read-out: CDK4/CCND IC50 (25-250 nM)
[11] = x = IC50 25-250 nM, read-out: CDK1/CCNB IC50 (25-250 nM)
[12] = <25 nM, read-out: CDK2/CCNE IC50 <25 nM
[13] = 25-250 nM marked x, read-out: CDK1/CCNB IC50 25-250 nM
[14] = <25 nM, read-out: CDK6/CCND IC50 <25 nM
[15] = <25 nM, read-out: CDK4/CCND IC50 <25 nM
[16] = 25-250 nM marked x, read-out: CDK2/CCNE IC50 25-250 nM
[17] = >250 nM marked x, read-out: CDK1/CCNB IC50 >250 nM
[18] = 25-250 nM marked x, read-out: CDK4/CCND IC50 25-250 nM
[19] = 25-250 nM marked x, read-out: CDK6/CCND IC50 25-250 nM

| Structure (SMILES) | IC50 [1, 12] [nM] | IC50 [3, 14] [nM] | IC50 [1, 16] [nM] | IC50 [2, 17] [nM] | IC50 [4, 18] [nM] | IC50 [3, 19] [nM] | other results |
| --- | --- | --- | --- | --- | --- | --- | --- |
| CC(C)(O)Cn1cc2ccc(C#Cc3nccc4cnc(Nc5ccc(S(C)(=O)=O)cc5)cc34)cc2n1 (single isomer, unassigned) [Example 577, 2-Methyl-1-(6-((7-((4-(methylsulfonyl)phenyl)amino)-2,6-naphthyridin-1-yl)ethynyl)-2H-indazol-2-yl)propan-2-ol] | – | – | – | – | – | – | IC50 ([1]; x = IC50 >250 nM, read-out: CDK2/CCNE IC50 (>250 nM column)): > 250 nM; IC50 [2, 5]: > 250 nM; IC50 [3, 6]: > 250 nM; IC50 [4, 7]: > 250 nM |
| CS(=O)(=O)c1ccc(Nc2cc3c(-c4ccc5c(cnn5CC(O)(C(F)(F)F)C(F)(F)F)c4Cl)nccc3cn2)cc1 (single isomer, unassigned) [Example 587, 2-((4-chloro-5-(7-((4-(methylsulfonyl)phenyl)amino)-2,6-naphthyridin-1-yl)-1H-indazol-1-yl)methyl)-1,1,1,3,3,3-hexafluoropropan-2-ol] | – | – | – | – | – | – | IC50 [1, 8]: < 25 nM; IC50 [2, 5]: > 250 nM; IC50 [3, 6]: > 250 nM; IC50 [4, 7]: > 250 nM |
| CC1NCCc2cc(-c3nccc4cnc(Nc5ccc(S(C)(=O)=O)cc5)cc34)ccc21 (single isomer, unassigned) [Example 599, 5-(1-methyl-1,2,3,4-tetrahydroisoquinolin-6-yl)-N-(4-(methylsulfonyl)phenyl)-2,6-naphthyridin-3-amine] | – | – | – | – | – | – | IC50 ([1]; x = IC50 25-250 nM, read-out: CDK2/CCNE IC50 (25-250 nM)): 25 to 250 nM; IC50 [2, 5]: > 250 nM; IC50 [3, 6]: > 250 nM; IC50 [4, 7]: > 250 nM |
| Cc1c(-c2nccc3cnc(Nc4ccc(S(C)(=O)=O)cc4)cc23)ccc2c1cnn2CC(C)O (single isomer, unassigned) [Example 614, 1-(4-methyl-5-(7-((4-(methylsulfonyl)phenyl)amino)-2,6-naphthyridin-1-yl)-1H-indazol-1-yl)propan-2-ol] | – | – | – | – | – | – | IC50 [1, 8]: < 25 nM; IC50 [2, 5]: > 250 nM; IC50 [3, 9]: 25 to 250 nM; IC50 [4, 10]: 25 to 250 nM |
| CC1(O)C=C(c2nccc3cnc(Nc4ccc(S(C)(=O)=O)cc4)cc23)CCC1 (single isomer, unassigned) [Example 625, 1-methyl-3-(7-((4-(methylsulfonyl)phenyl)amino)-2,6-naphthyridin-1-yl)cyclohex-2-en-1-ol] | – | – | – | – | – | – | IC50 [1, 8]: < 25 nM; IC50 [2, 11]: 25 to 250 nM; IC50 [3, 9]: 25 to 250 nM; IC50 [4, 7]: > 250 nM |
| Cc1c(-c2nccc3cnc(Nc4ccc(S(C)(=O)=O)cc4)cc23)ccc2c1cnn2CC(C)(C)O (single isomer, unassigned) [Example 674, 2-methyl-1-(4-methyl-5-(7-((4-(methylsulfonyl)phenyl)amino)-2,6-naphthyridin-1-yl)-1H-indazol-1-yl)propan-2-ol] | – | – | – | – | – | – | IC50 [1, 8]: < 25 nM; IC50 [2, 11]: 25 to 250 nM; IC50 [3, 9]: 25 to 250 nM; IC50 [4, 10]: 25 to 250 nM |
| CS(=O)(=O)N1CCC(Nc2cc3c(N4CCCCC4)nccc3cn2)CC1 [Ex 27, N-(1-(methylsulfonyl)piperidin-4-yl)-5-(piperidin-1-yl)-2,6-naphthyridin-3-amine] | < 25 | < 25 | – | – | – | – | IC50 [2, 13]: 25 to 250 nM; IC50 [4, 15]: < 25 nM |
| CN1CCC(C2CCN(c3nccc4cnc(NC5CCN(S(C)(=O)=O)CC5)cc34)CC2)CC1 [Ex 28, 5-(1'-methyl-[4,4'-bipiperidin]-1-yl)-N-(1-(methylsulfonyl)piperidin-4-yl)-2,6-naphthyridin-3-amine] | – | < 25 | 25 to 250 | > 250 | 25 to 250 | – | – |
| CN1CCN(c2nccc3cnc(NC4CCN(S(C)(=O)=O)CC4)cc23)CC1 [Ex 29, 5-(4-methylpiperazin-1-yl)-N-(1-(methylsulfonyl)piperidin-4-yl)-2,6-naphthyridin-3-amine] | – | < 25 | 25 to 250 | > 250 | – | – | IC50 [4, 15]: < 25 nM |
| CS(=O)(=O)N1CCC(Nc2cc3c(N4CC5(CC(O)C5)C4)nccc3cn2)CC1 [Ex 36, 2-(7-((1-(methylsulfonyl)piperidin-4-yl)amino)-2,6-naphthyridin-1-yl)-2-azaspiro[3.3]heptan-6-ol] | < 25 | – | – | – | 25 to 250 | 25 to 250 | IC50 [2, 13]: 25 to 250 nM |
| CS(=O)(=O)N1CCC(Nc2cc3c(N4CCC(C#N)CC4)nccc3cn2)CC1 [Ex 37, 1-(7-((1-(methylsulfonyl)piperidin-4-yl)amino)-2,6-naphthyridin-1-yl)piperidine-4-carbonitrile] | < 25 | – | – | > 250 | 25 to 250 | 25 to 250 | – |
| CS(=O)(=O)N1CCC(Nc2cc3c(N4CCC(CO)CC4)nccc3cn2)CC1 [Ex 41, (1-(7-((1-(methylsulfonyl)piperidin-4-yl)amino)-2,6-naphthyridin-1-yl)piperidin-4-yl)methanol] | < 25 | < 25 | – | > 250 | – | – | IC50 [4, 15]: < 25 nM |
| CS(=O)(=O)N1CCC(Nc2cc3c(N4CC(C#N)C4)nccc3cn2)CC1 [Ex 43, 1-(7-((1-(methylsulfonyl)piperidin-4-yl)amino)-2,6-naphthyridin-1-yl)azetidine-3-carbonitrile] | < 25 | – | – | > 250 | 25 to 250 | 25 to 250 | – |
| CN(c1nccc2cnc(NC3CCN(S(C)(=O)=O)CC3)cc12)C1CCCCC1 [Ex 44, N1-cyclohexyl-N1-methyl-N7-(1-(methylsulfonyl)piperidin-4-yl)-2,6-naphthyridine-1,7-diamine] | < 25 | – | – | – | 25 to 250 | 25 to 250 | IC50 [2, 13]: 25 to 250 nM |
| CS(=O)(=O)N1CCC(Nc2cc3c(N4CCC(F)(F)CC4)nccc3cn2)CC1 [Ex 47, 5-(4,4-difluoropiperidin-1-yl)-N-(1-(methylsulfonyl)piperidin-4-yl)-2,6-naphthyridin-3-amine] | – | < 25 | 25 to 250 | – | – | – | IC50 [2, 13]: 25 to 250 nM; IC50 [4, 15]: < 25 nM |
| CS(=O)(=O)N1CCC(Nc2cc3c(N4CCNC(=O)C4)nccc3cn2)CC1 [Ex 48, 4-(7-((1-(methylsulfonyl)piperidin-4-yl)amino)-2,6-naphthyridin-1-yl)piperazin-2-one] | – | < 25 | 25 to 250 | > 250 | – | – | IC50 [4, 15]: < 25 nM |
| CN(C)C1CCN(c2nccc3cnc(NC4CCN(S(C)(=O)=O)CC4)cc23)CC1 [Ex 49, 5-(4-(dimethylamino)piperidin-1-yl)-N-(1-(methylsulfonyl)piperidin-4-yl)-2,6-naphthyridin-3-amine] | – | – | 25 to 250 | > 250 | 25 to 250 | 25 to 250 | – |
| COC1CCN(c2nccc3cnc(NC4CCN(S(C)(=O)=O)CC4)cc23)CC1 [Ex 50, 5-(4-methoxypiperidin-1-yl)-N-(1-(methylsulfonyl)piperidin-4-yl)-2,6-naphthyridin-3-amine] | – | < 25 | 25 to 250 | > 250 | 25 to 250 | – | – |
| CS(=O)(=O)N1CCC(Nc2cc3c(N4CC(O)C4)nccc3cn2)CC1 [Ex 51, 1-(7-((1-(methylsulfonyl)piperidin-4-yl)amino)-2,6-naphthyridin-1-yl)azetidin-3-ol] | – | < 25 | 25 to 250 | > 250 | 25 to 250 | – | – |

Continued, in another order:

| IC50 [1, 12] [nM] | IC50 [3, 14] [nM] | IC50 [1, 16] [nM] | IC50 [2, 17] [nM] | IC50 [4, 18] [nM] | IC50 [3, 19] [nM] | Structure (SMILES) | other results |
| --- | --- | --- | --- | --- | --- | --- | --- |
| < 25 | – | – | – | 25 to 250 | 25 to 250 | CC(C)N(C)c1nccc2cnc(NC3CCN(S(C)(=O)=O)CC3)cc12 [Ex 35, N1-isopropyl-N1-methyl-N7-(1-(methylsulfonyl)piperidin-4-yl)-2,6-naphthyridine-1,7-diamine] | IC50 [2, 13]: 25 to 250 nM |
| – | – | 25 to 250 | > 250 | 25 to 250 | 25 to 250 | CN(c1nccc2cnc(NC3CCN(S(C)(=O)=O)CC3)cc12)C1CC1 [Ex 46, N1-cyclopropyl-N1-methyl-N7-(1-(methylsulfonyl)piperidin-4-yl)-2,6-naphthyridine-1,7-diamine] | – |
